Key:
[1] = UV-vis spectral response and spectrophotometric titration with CTP; format: binding
Procedure: (§1) In order to examine the binding behaviour of the Zn-complex (L.Zn) (Scheme 1, Formula 1A) to various important anions (like ATP, CTP, ADP, AMP, PPi, H2PO4^−, SO4^2−, CH3CO2^−, I^−, Br^−, Cl^− and F^−) the following experiment was conducted. A solution (˜21 mM) for of sodium salts of ATP, CTP, ADP, AMP, PPi, H2PO4^−, SO4^−, CH3CO2^−, I^−, Br^−, Cl^−, and F^− were prepared using respective salt in 10 mM HEPES buffer solutions (pH 7.2) and was stored for use. Further, a solution (44.35 μM) of the compound L.Zn (Scheme 1, Formula 1A) was prepared using doubly-distilled and deionized water and stored. These stored solutions were used on the day of preparation of the solution for experiment. […]
(§2) A solution of L.Zn (Scheme 1, Formula 1A) (8.87 μM) in aqueous medium was treated with excess amount of ˜500 μM of different phosphate anions like H2PO4^−, PPi, AMP, ADP, ATP and CTP. […] Thus L.Zn (Scheme 1, Formula 1A) can bind ATP selectively among various phosphate anions and the color change associated with the binding of ATP can be detected through naked eye (FIG. 2).
A 1.0 mL of stored solution L.Zn (Scheme 1, Formula 1A) ([L.Zn]=8.95 μM) was put in a test-tube, such that, the final concentration of the L.Zn solution was 1.79 μM to this varying amount of CTP (0.1-4 mL of the stored CTP solution (12.71 mM) was added. Resulting solution was then diluted by addition of a 10 mM HEPES buffer solution (N-(2-hydroxyethyl)-piperazine-N′-2-ethanesulfonic acid) (pH 7.2) maintaining total volume of the resultant aliquot of 5 mL, which was used for spectrophotometric measurements by putting a quartz spectrophotometric cell (3.5 mL capacity). The total spectral change was measured using a spectrophotometer (Shimadzu UV-3101 PC) after appropriate base line correction. […]

[2] = UV-vis spectral response and spectrophotometric titration with ADP; format: binding
Procedure: as §1
as §2, with “2). […]” for “2).”

[3] = Absorption and 31P NMR study of binding to various anions
Procedure: as §1

[4] = Solubility in water without and with α-cyclodextrin; format: physicochemical
Procedure: Solubility of L.Zn (Scheme 1, Formula 1A) in water is limited (0.0448 gL^−1). However, this could be enhanced in presence of α-cyclodextrin (c-CD). 2.3 mg of L.Zn (Scheme 1, Formula 1A) was dissolved in 5 mL of double distilled water and stirred at 25 to 35° C. for 1 hour. […] Similar experiment was repeated in presence of α-CD. In this case 14.2 mg of α-CD was dissolved in 5 mL of double distilled water containing 2.913 mg of L.Zn (Scheme 1, Formula 1A) and this solution was stirred at 25° C. for 1 hour; while a solution with little suspended solid was obtained. This was filtered using G-4 gooch crucible. Filtrate was collected and optical density (O.D.) of the filtrate was monitored at 458 nm. Considering the complete formation of the inclusion complex (pseudorotaxane form), concentration was evaluated based on the known εLZn.α-CD value and the O.D. at 458 nm. […] L.Zn (Scheme 1, Formula 1A) present in aqueous solution in the pseudorotaxane form is being represented as L.Zn.CD in Scheme 2.

[5] = Lipophilic nature of the dye
[6] = L.Zn 8.87 μM in aqueous medium, ~500 μM anion
[7] = spectrophotometric titration, pH 7.2, 10 mM HEPES, 25° C.

**Q.** With `CN(C)c1ccc(N=Nc2ccc(S(=O)(=O)N3CCCNCCNCCCNCC3)cc2)cc1.O=[N+]([O-])[O-].O=[N+]([O-])[O-].[Zn+2]` [L.Zn] as the compound, how does the “color change on addition of CTP (naked eye)” value [1, 6] read?
**A.** Its value is “Slight color change”.

**Q.** What about the “red shift of absorption on addition of CTP” value ([1]; pH 7.2, L.Zn 8.87 μM, anion 17 mM) of the same compound?
**A.** Its value is 9 nm.

**Q.** What about the “binding constant for the formation of the complex L.Zn-CTP” value [1, 7] of the same compound?
**A.** Its value is 220 (±+15) M^−1.

**Q.** What about the “color change on addition of ADP (naked eye)” value [2, 6] of the same compound?
**A.** The value was “Slight color change”.

**Q.** And the “binding constant for the formation of the complex L.Zn-ADP” value [2, 7]?
**A.** Its value is 142 (±15) M^−1.

**Q.** And the “observed binding preference / trend in binding affinity” value ([3]; 31P NMR and spectral data)?
**A.** Its value is “ATP>>CTP>ADP>>AMP”.

**Q.** And the “change of absorption spectrum on addition of other anions” value ([3]; 2000 equivalents of other anions, pH 7.2)?
**A.** Its value is “no change was observed”.

**Q.** And the “L.Zn present in solution in presence of α-CD” value ([4]; 14.2 mg α-CD in 5 mL double distilled water, 25° C., O.D. at 458 nm)?
**A.** The value was 0.34 g/L.

**Q.** What about the solubility in water ([4]; double distilled water, stirred 1 hour, from optical density of filtrate) of the same compound?
**A.** The solubility in water was 0.0448 gL^−1.

**Q.** And the “solubility in water” value ([4]; present reagent)?
**A.** Its value is “completely soluble in water”.

**Q.** What about the “increase in solubility in presence of α-CD” value ([4]; water, with versus without α-CD) of the same compound?
**A.** Its value is roughly 7.5 fold.

**Q.** And the lipophilic nature [5]?
**A.** Its lipophilic nature is “non-lipophilic”.

— patent publication US20130130306A1, “ZN (II) BASED COLORIMETRIC SENSOR AND PROCESS FOR THE PREPARATION THEREOF” (COUNCIL OF SCIENTIFIC & INDUSTRIAL RESEARCH, priority 2010, published 2013)
